Measurements published in patent publication US5292884A, “Cyclic hydroxamic acids” (Biomide Investment Limited Partnership, priority 1992, dated 1994).

target: T1, 12-lipoxygenase (Sus scrofa, UniProt P16469); assay: 12-lipoxygenase inhibition in porcine leukocyte cytosol ([1-14C] arachidonic acid conversion to 12-HETE, TLC); format: biochemical; details: porcine leukocyte cytosol 0.075 mg/mL, pH 8.0, 5 min preincubation, 5 μM arachidonic acid, 15 min at 37° C.
T1 construct: porcine Leukocyte cytosol in buffer; from tissue; host or cells: porcine leukocyte cytosol
T1 sequence (P16469 1-663): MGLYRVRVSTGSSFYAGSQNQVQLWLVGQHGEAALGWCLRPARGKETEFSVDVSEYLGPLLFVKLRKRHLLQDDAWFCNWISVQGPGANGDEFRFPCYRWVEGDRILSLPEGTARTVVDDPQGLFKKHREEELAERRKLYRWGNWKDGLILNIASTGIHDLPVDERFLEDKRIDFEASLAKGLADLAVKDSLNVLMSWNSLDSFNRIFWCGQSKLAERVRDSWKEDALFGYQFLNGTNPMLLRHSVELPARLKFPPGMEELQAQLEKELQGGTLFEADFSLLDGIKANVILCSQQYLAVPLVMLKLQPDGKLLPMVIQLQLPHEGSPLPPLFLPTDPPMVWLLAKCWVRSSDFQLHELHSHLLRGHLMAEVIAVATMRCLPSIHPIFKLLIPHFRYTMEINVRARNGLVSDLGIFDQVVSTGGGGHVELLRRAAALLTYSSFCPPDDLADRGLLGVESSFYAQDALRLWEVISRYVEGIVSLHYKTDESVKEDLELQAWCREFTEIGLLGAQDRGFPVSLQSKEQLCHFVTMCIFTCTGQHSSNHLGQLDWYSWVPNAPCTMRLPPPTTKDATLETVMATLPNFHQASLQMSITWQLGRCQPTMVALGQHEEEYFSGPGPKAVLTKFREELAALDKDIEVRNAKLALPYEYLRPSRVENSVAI
Protocol: The standard assay procedure is as follows:
Compounds of the present invention were added in 3 μL of DMSO at an appropriate concentration to porcine Leukocyte cytosol in buffer (final protein concentration of 0.075 mg/mL in 0.1M HEPES, 2 mM caCl2, 1 mM MgCl2, pH=8.0) and preincubated for 5 min at 37° C. [1-^14 C] arachidonic acid was added (final concentration of 5 μM) and the reactions were incubated for 15 min at 37° C. and terminated by the addition of HCl. Total reaction volume was 100 μL. Assays also included reduced glutathione in the assay at 25 μM or following the assay at 1 mM and/or cold carrier 12-HETE and arachidonic acid added at the end of the incubation at concentrations of 5 and 100 μM, respectively. Sample was extracted with water-saturated ethyl acetate and the extracts were spotted onto TLC plates. The plates were developed with dichloromethane/ethyl acetate/acetic acid in a ratio of 70:30:1. Under these conditions, the Rf's of 12-HETE and arachidonic acid are 0.30 and 0.45 , respectively. The percentage conversion to 12-HETE was calculated from the percentage of the total ^14 C on the TLC plate that coelutes with a standard of 12-HETE.

SMILES	IC50 [nM]
O=C1C[C@@H](CCCc2ccccc2)C[C@@H](c2ccccc2)N1O (relative stereo) [1(ddd), cis-1-Hydroxy-6-phenyl-4-(3-phenylpropyl)-piperidin-2-one]	4200
CCCCCCCCCC[C@@H]1C[C@H](Cc2ccccc2)CC(=O)N1O (relative stereo) [1(jj), cis-4-Benzyl-6-decyl-1-hydroxy-piperidin-2-one]	250
CCCCCCCCCCCCCC[C@H]1[C@H](c2ccccc2)CCC(=O)N1O (relative stereo) [1(bb), trans-1-Hydroxy-5-phenyl-6-tetradecyl-piperidin-2-one]	2000
CCCCCCCCCCCCCC[C@@H]1C[C@H](c2ccccc2)CC(=O)N1O (relative stereo) [1(f), cis-1-hydroxy-4-phenyl-6-tetradecyl-piperidin-2-one]	300
CCCCCCCCCCCCC1CCC(c2ccccc2)N(O)C1=O (single isomer, unassigned) [1(ii), 3-Dodecyl-1-hydroxy-6-phenyl-piperidin-2-one]	2000
CCCCCCCCCCCCCCCCCC[C@H]1C[C@H](c2ccccc2)CC(=O)N1O (relative stereo) [1(i), trans-1-hydroxy-6-octadecyl-4-phenylpiperidin-2-one]	10000
O=C1C[C@@H](c2ccccc2)C[C@H](CCCc2ccccc2)N1O (relative stereo) [1(k), trans-1-hydroxy-4-phenyl-6-(3-phenylpropyl)-piperidin-2-one]	390
O=C1C(CCCc2ccccc2)CC(c2ccccc2)CN1O (centres unmarked) [1(aaa), 1-Hydroxy-5-phenyl-3-(3-phenylpropyl)-piperidin-2-one]	750
CCCCCCCCCCCC[C@H]1C[C@H](c2ccccc2)CC(=O)N1O (relative stereo) [1(e), trans-1-hydroxy-6-dodecyl-4-phenylpiperidin-2-one]	500
CCCCCCCCCCCCCC[C@H]1C[C@H](c2ccccc2)CC(=O)N1O (relative stereo) [1(g), trans-1-hydroxy-4-phenyl-6-tetradecyl-piperidine-2-one]	400
CCCCCCCCCCCCCCCCCC[C@@H]1C[C@H](c2ccccc2)CC(=O)N1O (relative stereo) [1(h), cis-1-hydroxy-6-octadecyl-4-phenylpiperidin-2-one]	> 10000
CCCCCCCC[C@H]1C[C@H](c2ccccc2)CC(=O)N1O (relative stereo) [1(a), trans-1-hydroxy-6-octyl-4-phenylpiperidin-2-one]	150
O=C1C(Cc2cccc3ccccc23)C(c2ccccc2)CCN1O (centres unmarked) [1(ee), 1-Hydroxy-3-(1-naphthyl-methyl)-4-phenyl-piperidin-2-one]	1000
CCCCCCCCCCCC[C@@H]1C[C@H](c2ccccc2)CC(=O)N1O (relative stereo) [1(d), cis-1-hydroxy-6-dodecyl-4-phenyl-piperidine-2-one]	300
CCCCCCCCCC[C@@H]1C[C@H](c2ccccc2)CC(=O)N1O (relative stereo) [1(b), cis-1-hydroxy-6-decyl-4-phenyl-piperidin-2-one]	600
O=C1C[C@@H](c2ccccc2)C[C@@H](CCCc2ccccc2)N1O (relative stereo) [1(j), cis-1-hydroxy-4-phenyl-6-(3-phenylpropyl)-piperidin-2-one]	280
CCCCCCCCCCCCCC[C@@H]1[C@H](c2ccccc2)CCC(=O)N1O (relative stereo) [1(cc), cis-1-Hydroxy-5-phenyl-6-tetradecyl-piperidin-2-one]	740
CCCCCCCCCC[C@H]1C[C@H](c2ccccc2)CC(=O)N1O (relative stereo) [1(c), trans-1-hydroxy-6-decyl-4-phenyl-piperidin-2-one]	700
O=C1C(CCCc2ccccc2)C(c2ccccc2)CCN1O (centres unmarked) [1(hh), 1-Hydroxy-4-phenyl-3-(3-phenylpropyl)-piperidin-2-one]	1050

Further lines, results first:

IC50 [nM]	SMILES
520	O=C1C(c2ccccc2)CC(CCCc2ccccc2)CN1O (centres unmarked) [1(yy), 1-Hydroxy-3-phenyl-5-(3-phenylpropyl)-piperidin-2-one]
400	CCCCCCCCC[C@@H]1CC(=O)N(O)C[C@@H]1c1ccccc1 (relative stereo) [1(ss), cis-1-Hydroxy-4-nonyl-5-phenyl-piperidin-2-one]
1700	O=C1CC(CCCc2ccccc2)C(c2ccccc2)CN1O (single isomer, unassigned) [1(uu), 1-Hydroxy-5-phenyl-4-(3-phenylpropyl)-piperidin-2-one]
1000	CCCCCCCCCC[C@@H]1CC[C@H](c2ccccc2)C(=O)N1O (relative stereo) [1(v), cis-6-Decyl-1-hydroxy-3-phenyl-piperidin-2-one]
700	CCCCCCCCCCCCCC[C@H]1C[C@H](Cc2ccccc2)CC(=O)N1O (relative stereo) [1(oo), trans-4-Benzyl-1-hydroxy-6-tetradecyl-piperidin-2-one]
400	CCCCCCCCCCCCCC[C@@H]1C[C@H](Cc2ccccc2)CC(=O)N1O (relative stereo) [1(nn), cis-4-Benzyl-1-hydroxy-6-tetradecyl-piperidin-2-one]
800	CCCCCCCCCCCC[C@H]1[C@H](c2ccccc2)CCC(=O)N1O (relative stereo) [1(z), trans-6-Dodecyl-1-hydroxy-5-phenyl-piperidin-2-one]
1000	O=C1CC[C@@H](c2ccccc2)[C@H](CCCc2ccccc2)N1O (relative stereo) [1(xx), trans-1-Hydroxy-5-phenyl-6-(3-phenylpropyl)-piperidin-2-one]
1600	O=C1CC(c2ccccc2)C(CCCc2ccccc2)CN1O (centres unmarked) [1(zz), 1-Hydroxy-4-phenyl-5-(3-phenylpropyl)-piperidin-2-one]
600	CCCCCCCCC[C@@H]1CC(=O)N(O)C[C@H]1c1ccccc1 (relative stereo) [1(tt), trans-1-Hydroxy-4-nonyl-5-phenyl-piperidin-2-one]
300	CCCCCCCCCC[C@@H]1[C@@H](c2ccccc2)CCC(=O)N1O (relative stereo) [1(y), trans-6-Decyl-hydroxy-5-phenyl-piperidin-2-one]
420	CCCCCCCC[C@@H]1C[C@H](c2ccccc2)CC(=O)N1O (relative stereo) [Compound 1, cis-1-hydroxy-6-octyl-4-phenylpiperidin-2-one]
700	CCCCCCCCCCCC[C@@H]1C(=O)N(O)CC[C@H]1c1ccccc1 (relative stereo) [1(s), trans-1-hydroxy-4-phenyl-3-dodecylpiperidin-2-one]
700	CCCCCCCC[C@@H]1C[C@H](c2cccc3ccccc23)CC(=O)N1O (relative stereo) [1(n), cis-1-hydroxy-4-(1-naphthyl)-6-octylpiperidin-2-one]
500	O=C1C[C@H](c2ccccc2)C[C@H](CCCCCCCc2ccccc2)N1O (relative stereo) [1(l), cis-1-hydroxy-4-phenyl-6-(7-pheylheptyl)-iperidin-2-one]
900	O=C1[C@@H](CCCc2ccccc2)[C@@H](c2ccccc2)CCN1O (relative stereo) [1(t), cis-1-hydroxy-4-phenyl-3-(3-phenylpropyl)-piperidin-2-one]
1000	O=C1CC(CCc2ccccc2)C(c2ccccc2)CN1O (centres unmarked) [1(qq), 1-Hydroxy-5-phenyl-4-(2-phenylethyl)-piperidin-2-one]
1600	O=C1CC(CCc2ccccc2)C(Cc2ccccc2)CN1O (centres unmarked) [1(rr), 5-Benzyl-1-hydroxy-4-(2-phenylethyl)-piperidin-2-one]
400	CCCCCCCCCC[C@H]1C[C@H](Cc2ccccc2)CC(=O)N1O (relative stereo) [1(kk), trans-4-Benzyl-6-decyl-1-hydroxy-piperidin-2-one]
900	O=C1CC[C@@H](c2ccccc2)[C@@H](CCCc2ccccc2)N1O (relative stereo) [1(ww), cis-1-Hydroxy-5-phenyl-6-(3-phenylpropyl)-piperidin-2-one]
130	CCCCCCCC[C@H]1C[C@H](c2cccc3ccccc23)CC(=O)N1O (relative stereo) [1(o), trans-1-hydroxy-4-(1-naphthyl)-6-octylpiperidin-2-one]
100	CCCCCCCC[C@H]1C[C@H](c2ccc3ccccc3c2)CC(=O)N1O (relative stereo) [1(q), trans-1-hydroxy-4-(2-naphthyl)-6-octylpiperidin-2-one]
